Experiments:
[1] = system: Colo205; test: Inhibition of cell proliferation (CellTiter-Glo or InCell analyzer), Colo205; assay type: cell-based; settings: Homo sapiens, COLO 205, 72 h / 3 days, values given as IC50 category
Method in brief: In one

[2] = system: NCI-H929; test: Inhibition of cell proliferation (CellTiter-Glo or InCell analyzer), NCI-H929; assay type: cell-based; settings: Homo sapiens, 72 h / 3 days, values given as IC50 category
Method in brief: In one

[3] = target: T1, NIH-3T3 cells overexpressing human IGF-1R (Homo sapiens, UniProt P08069); test: IGF-1R cellular autophosphorylation (DELFIA); assay type: cell-based
T1 construct: expressed in transfected cells; host or cells: NIH-3T3 (mouse fibroblasts)
Method in brief: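 Receptor autophosphorylation measured by DELFIA, capturing IGF-1R or IRβ and detecting with europium anti-pTyr, reported as percent of IGF-1- or insulin-stimulated signal. Compounds (30 uM to 1.5 nM) added 2 h before ligand, then 15 min stimulation (IGF-1 30 ng/ml or insulin 3 ug/ml).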

[4] = target: ALK (Homo sapiens, UniProt Q9UM73); test: ALK enzyme assay (HTRF); assay type: biochemical; settings: 0.25 nM ALK, 15.0 μM ATP, values given as pIC50 category
Method in brief: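 Isolated ALK phosphorylates a biotinylated tyrosine peptide, 120 min at 20° C; anti-phosphotyrosine Eu-cryptate/streptavidin-XL665 HTRF read after 60 min with EDTA-containing detection mix.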

T1 sequence (P08069 31-1367): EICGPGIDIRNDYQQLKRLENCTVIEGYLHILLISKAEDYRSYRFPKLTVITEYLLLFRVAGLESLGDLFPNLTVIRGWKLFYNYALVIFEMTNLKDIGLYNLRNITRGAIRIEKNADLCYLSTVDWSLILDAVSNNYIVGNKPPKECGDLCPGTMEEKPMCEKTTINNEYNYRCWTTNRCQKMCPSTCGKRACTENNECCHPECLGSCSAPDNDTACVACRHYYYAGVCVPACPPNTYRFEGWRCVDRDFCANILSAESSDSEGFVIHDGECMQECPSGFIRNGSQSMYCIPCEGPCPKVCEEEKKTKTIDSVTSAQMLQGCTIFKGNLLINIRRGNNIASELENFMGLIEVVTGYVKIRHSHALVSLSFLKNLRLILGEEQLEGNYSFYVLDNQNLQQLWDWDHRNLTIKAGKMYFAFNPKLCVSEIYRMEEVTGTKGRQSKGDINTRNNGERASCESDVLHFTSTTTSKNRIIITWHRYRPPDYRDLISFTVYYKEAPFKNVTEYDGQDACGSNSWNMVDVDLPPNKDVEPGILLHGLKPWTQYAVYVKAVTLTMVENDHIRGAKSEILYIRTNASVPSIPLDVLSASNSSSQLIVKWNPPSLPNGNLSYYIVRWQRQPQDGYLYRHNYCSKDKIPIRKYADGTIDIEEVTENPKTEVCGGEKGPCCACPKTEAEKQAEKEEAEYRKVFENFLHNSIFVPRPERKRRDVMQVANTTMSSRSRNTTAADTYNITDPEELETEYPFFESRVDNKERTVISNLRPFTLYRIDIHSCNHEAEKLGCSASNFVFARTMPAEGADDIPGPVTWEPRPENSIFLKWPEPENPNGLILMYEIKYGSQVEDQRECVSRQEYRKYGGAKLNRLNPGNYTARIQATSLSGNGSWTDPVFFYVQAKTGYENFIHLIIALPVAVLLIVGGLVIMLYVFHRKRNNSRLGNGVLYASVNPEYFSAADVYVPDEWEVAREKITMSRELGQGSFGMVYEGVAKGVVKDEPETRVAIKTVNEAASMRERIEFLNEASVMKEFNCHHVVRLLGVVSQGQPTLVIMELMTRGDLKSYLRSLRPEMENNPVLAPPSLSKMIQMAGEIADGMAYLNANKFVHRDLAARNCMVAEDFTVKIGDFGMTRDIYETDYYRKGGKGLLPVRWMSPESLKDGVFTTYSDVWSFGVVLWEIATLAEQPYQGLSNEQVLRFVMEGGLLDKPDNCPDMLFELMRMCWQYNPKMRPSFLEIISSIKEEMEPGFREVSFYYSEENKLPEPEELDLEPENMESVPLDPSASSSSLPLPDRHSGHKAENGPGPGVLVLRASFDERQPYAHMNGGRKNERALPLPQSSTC
Chain of ALK (Q9UM73 19-1620): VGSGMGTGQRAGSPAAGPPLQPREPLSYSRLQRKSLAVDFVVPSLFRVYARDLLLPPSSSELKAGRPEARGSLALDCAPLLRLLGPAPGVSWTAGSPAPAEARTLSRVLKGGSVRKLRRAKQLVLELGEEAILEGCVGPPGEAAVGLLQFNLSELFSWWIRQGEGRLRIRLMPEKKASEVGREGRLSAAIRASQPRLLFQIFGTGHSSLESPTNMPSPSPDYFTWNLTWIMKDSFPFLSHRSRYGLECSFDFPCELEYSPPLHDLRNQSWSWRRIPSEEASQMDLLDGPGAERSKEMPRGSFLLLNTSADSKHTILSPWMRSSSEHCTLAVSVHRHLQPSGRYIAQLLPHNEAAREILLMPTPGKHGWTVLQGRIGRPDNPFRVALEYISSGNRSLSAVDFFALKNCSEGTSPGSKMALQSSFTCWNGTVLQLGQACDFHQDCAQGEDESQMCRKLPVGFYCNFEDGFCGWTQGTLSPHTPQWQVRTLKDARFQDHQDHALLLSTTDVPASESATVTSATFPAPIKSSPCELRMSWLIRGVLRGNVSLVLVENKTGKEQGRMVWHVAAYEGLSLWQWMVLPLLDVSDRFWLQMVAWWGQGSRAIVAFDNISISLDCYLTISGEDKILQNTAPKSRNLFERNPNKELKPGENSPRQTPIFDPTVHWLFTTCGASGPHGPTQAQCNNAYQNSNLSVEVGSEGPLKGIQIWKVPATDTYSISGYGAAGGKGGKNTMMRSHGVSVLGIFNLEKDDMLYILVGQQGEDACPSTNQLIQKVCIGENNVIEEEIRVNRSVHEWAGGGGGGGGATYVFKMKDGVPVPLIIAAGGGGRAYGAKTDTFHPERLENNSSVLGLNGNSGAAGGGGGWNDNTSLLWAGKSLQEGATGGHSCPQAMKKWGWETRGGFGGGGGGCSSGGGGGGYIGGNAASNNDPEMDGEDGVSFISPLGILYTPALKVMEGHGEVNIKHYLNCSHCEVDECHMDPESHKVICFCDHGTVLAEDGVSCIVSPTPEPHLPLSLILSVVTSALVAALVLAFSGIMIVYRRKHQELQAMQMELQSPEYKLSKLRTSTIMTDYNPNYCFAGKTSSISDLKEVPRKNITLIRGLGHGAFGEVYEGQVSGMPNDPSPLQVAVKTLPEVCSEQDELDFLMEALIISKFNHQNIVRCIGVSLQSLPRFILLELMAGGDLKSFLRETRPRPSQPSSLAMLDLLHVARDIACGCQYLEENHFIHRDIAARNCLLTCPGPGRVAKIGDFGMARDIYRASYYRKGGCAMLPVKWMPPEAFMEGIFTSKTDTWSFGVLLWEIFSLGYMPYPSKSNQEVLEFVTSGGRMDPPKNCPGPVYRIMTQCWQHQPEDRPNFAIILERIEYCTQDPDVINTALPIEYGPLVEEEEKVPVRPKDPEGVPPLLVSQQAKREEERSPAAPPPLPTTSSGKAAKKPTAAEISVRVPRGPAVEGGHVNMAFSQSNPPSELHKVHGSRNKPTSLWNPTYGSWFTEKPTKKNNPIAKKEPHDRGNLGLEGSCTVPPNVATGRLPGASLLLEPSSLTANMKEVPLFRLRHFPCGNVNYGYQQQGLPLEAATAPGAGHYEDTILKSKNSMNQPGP

| SMILES | IC50 [1] | IC50 [2] | IC50 [3] | IC50 [4] |
| --- | --- | --- | --- | --- |
| CCNC(=O)c1c(F)cc(F)cc1Nc1nc(Nc2cc3c(cc2OC)CCCN3C(=O)CN(C)C)nc2[nH]ccc12 [Example 180, 2-[(2-{[1-(N,N-dimethylglycyl)-6-(methyloxy)-1,2,3,4-tetrahydro-7-quinolinyl]amino}-1H-pyrrolo[2,3-d]pyrimidin-4-yl)amino]-N-ethyl-4,6-difluorobenzamide] | 250 to 1000 nM | 250 to 1000 nM | < 100 nM | 0.251 to 1 nM |
| COc1cc2c(cc1Nc1nc(Nc3cccc(F)c3C(N)=O)c3cc[nH]c3n1)N(C(=O)CN1CCOCC1)CC2 [Example 185, 2-fluoro-6-[(2-{[5-(methyloxy)-1-(4-morpholinylacetyl)-2,3-dihydro-1H-indol-6-yl]amino}-1H-pyrrolo[2,3-d]pyrimidin-4-yl)amino]benzamide] | > 1000 nM | < 250 nM | < 100 nM | 5.01 to 200 nM |
| COc1cc2c(cc1Nc1nc(Nc3cccc(F)c3C(N)=O)c3cc[nH]c3n1)N(C(=O)CN1CCN(C(C)C)CC1)CC2 [Example 186, 2-fluoro-6-[(2-{[1-{[4-(1-methylethyl)-1-piperazinyl]acetyl}-5-(methyloxy)-2,3-dihydro-1H-indol-6-yl]amino}-1H-pyrrolo[2,3-d]pyrimidin-4-yl)amino]benzamide] | > 1000 nM | 250 to 1000 nM | 100 to 500 nM | 5.01 to 200 nM |
| COc1cc2c(cc1Nc1nc(Nc3cccc(F)c3C(N)=O)c3cc[nH]c3n1)N(C(=O)CCN1CCOCC1)CC2 [Example 187, 2-fluoro-6-{[2-({5-(methyloxy)-1-[3-(4-morpholinyl)propanoyl]-2,3-dihydro-1H-indol-6-yl}amino)-1H-pyrrolo[2,3-d]pyrimidin-4-yl]amino}benzamide] | > 1000 nM | < 250 nM | 100 to 500 nM | 1.26 to 3.98 nM |
| COc1cc2c(cc1Nc1nc(Nc3cccc(F)c3C(N)=O)c3cc[nH]c3n1)N(C(=O)CCN1CCN(C(C)C)CC1)CC2 [Example 188, 2-fluoro-6-[(2-{[1-{3-[4-(1-methylethyl)-1-piperazinyl]propanoyl}-5-(methyloxy)-2,3-dihydro-1H-indol-6-yl]amino}-1H-pyrrolo[2,3-d]pyrimidin-4-yl)amino]benzamide] | 250 to 1000 nM | 250 to 1000 nM | > 500 nM | 5.01 to 200 nM |
| COc1cc2c(cc1Nc1nc(Nc3cc(F)cc(F)c3C(N)=O)c3cc[nH]c3n1)N(C(=O)CN(C)C)CC2 [Example 189, 2-[(2-{[1-(N,N-dimethylglycyl)-5-(methyloxy)-2,3-dihydro-1H-indol-6-yl]amino}-1H-pyrrolo[2,3-d]pyrimidin-4-yl)amino]-4,6-difluorobenzamide] | < 250 nM | < 250 nM | < 100 nM | 1.26 to 3.98 nM |
| CNC(=O)c1c(F)cc(F)cc1Nc1nc(Nc2cc3c(cc2OC)CCN3C(=O)CN(C)C)nc2[nH]ccc12 [Example 190, 2-[(2-{[1-(N,N-dimethylglycyl)-5-(methyloxy)-2,3-dihydro-1H-indol-6-yl]amino}-1H-pyrrolo[2,3-d]pyrimidin-4-yl)amino]-4,6-difluoro-N-methylbenzamide] | 250 to 1000 nM | < 250 nM | < 100 nM | 0.251 to 1 nM |
| CCCN(CCC)[C@@H](C)C(=O)N1CCc2cc(OC)c(Nc3nc(Nc4cccc(F)c4C(=O)NC)c4cc[nH]c4n3)cc21 [Example 191, 2-[(2-{[1-(N,N-dipropyl-L-alanyl)-5-(methyloxy)-2,3-dihydro-1H-indol-6-yl]amino}-1H-pyrrolo[2,3-d]pyrimidin-4-yl)amino]-6-fluoro-N-methylbenzamide] | > 1000 nM | > 1000 nM | 100 to 500 nM | 5.01 to 200 nM |
| CCCN(CCC)[C@@H](C)C(=O)N1CCc2cc(OC)c(Nc3nc(Nc4cccc(F)c4C(N)=O)c4cc[nH]c4n3)cc21 [Example 192, 2-[(2-{[1-(N,N-dipropyl-L-alanyl)-5-(methyloxy)-2,3-dihydro-1H-indol-6-yl]amino}-1H-pyrrolo[2,3-d]pyrimidin-4-yl)amino]-6-fluorobenzamide] | 250 to 1000 nM | < 250 nM | < 100 nM | 5.01 to 200 nM |
| CNC(=O)c1c(F)cccc1Nc1nc(Nc2cc3c(cc2OC)CCN3C(=O)C(C)(C)O)nc2[nH]ccc12 [Example 193, 2-fluoro-6-[(2-{[1-(2-hydroxy-2-methylpropanoyl)-5-(methyloxy)-2,3-dihydro-1H-indol-6-yl]amino}-1H-pyrrolo[2,3-d]pyrimidin-4-yl)amino]-N-methylbenzamide] | > 1000 nM | > 1000 nM | > 500 nM | 5.01 to 200 nM |
| COc1cc2c(cc1Nc1nc(Nc3cccc4c3C(=O)NC4)c3cc[nH]c3n1)N(C(=O)CN(C)C)CC2 [Example 200, 7-[(2-{[1-(N,N-dimethylglycyl)-5-(methyloxy)-2,3-dihydro-1H-indol-6-yl]amino}-1H-pyrrolo[2,3-d]pyrimidin-4-yl)amino]-2,3-dihydro-1H-isoindol-1-one] | < 250 nM | < 250 nM | < 100 nM | 1.26 to 3.98 nM |
| CNC(=O)c1c(F)cccc1Nc1nc(Nc2cc3c(cc2OC)CCCN3C(=O)[C@@H]2CCCN2C)nc2[nH]ccc12 [Example 202, 2-fluoro-N-methyl-6-[(2-{[6-(methyloxy)-1-(1-methyl-L-prolyl)-1,2,3,4-tetrahydro-7-quinolinyl]amino}-1H-pyrrolo[2,3-d]pyrimidin-4-yl)amino]benzamide] | 250 to 1000 nM | < 250 nM | 100 to 500 nM | 5.01 to 200 nM |
| COc1cc(OCCN2CCN(C)CC2)ccc1Nc1nc(Nc2cccc(F)c2C(N)=O)c2cc[nH]c2n1 [Example 203, 2-fluoro-6-({2-[(2-(methyloxy)-4-{[2-(4-methyl-1-piperazinyl)ethyl]oxy}phenyl)amino]-1H-pyrrolo[2,3-d]pyrimidin-4-yl}amino)benzamide] | 250 to 1000 nM | < 250 nM | 100 to 500 nM | 0.251 to 1 nM |
| COc1cc(N2CCN(S(C)(=O)=O)CC2)ccc1Nc1nc(Nc2cccc(F)c2C(N)=O)c2cc[nH]c2n1 [Example 204, 2-fluoro-6-{[2-({2-(methyloxy)-4-[4-(methylsulfonyl)-1-piperazinyl]phenyl}amino)-1H-pyrrolo[2,3-d]pyrimidin-4-yl]amino}benzamide] | < 250 nM | < 250 nM | > 500 nM | 0.251 to 1 nM |
| COc1cc(OCCCN2CCN(C)CC2)ccc1Nc1nc(Nc2cccc(F)c2C(N)=O)c2cc[nH]c2n1 [Example 205, 2-fluoro-6-({2-[(2-(methyloxy)-4-{[3-(4-methyl-1-piperazinyl)propyl]oxy}phenyl)amino]-1H-pyrrolo[2,3-d]pyrimidin-4-yl}amino)benzamide] | < 250 nM | < 250 nM | 100 to 500 nM | 1.26 to 3.98 nM |
| COc1cc(N2CCCN(S(C)(=O)=O)CC2)ccc1Nc1nc(Nc2cccc(F)c2C(N)=O)c2cc[nH]c2n1 [Example 207, 2-fluoro-6-{[2-({2-(methyloxy)-4-[4-(methylsulfonyl)hexahydro-1H-1,4-diazepin-1-yl]phenyl}amino)-1H-pyrrolo[2,3-d]pyrimidin-4-yl]amino}benzamide] | 250 to 1000 nM | 250 to 1000 nM | > 500 nM | 1.26 to 3.98 nM |
| COc1cc(N2CCCN(C(C)C)CC2)ccc1Nc1nc(Nc2cccc(F)c2C(N)=O)c2cc[nH]c2n1 [Example 208, 2-fluoro-6-[(2-{[4-[4-(1-methylethyl)hexahydro-1H-1,4-diazepin-1-yl]-2-(methyloxy)phenyl]amino}-1H-pyrrolo[2,3-d]pyrimidin-4-yl)amino]benzamide] | 250 to 1000 nM | < 250 nM | 100 to 500 nM | 0.251 to 1 nM |
| COc1cc2c(cc1Nc1nc(Nc3cccc(F)c3C(N)=O)c3cc[nH]c3n1)N(C(=O)CN(C)C)CCC2 [Example 210, 2-[(2-{[1-(N,N-dimethylglycyl)-6-(methyloxy)-1,2,3,4-tetrahydro-7-quinolinyl]amino}-1H-pyrrolo[2,3-d]pyrimidin-4-yl)amino]-6-fluorobenzamide] | < 250 nM | < 250 nM | < 100 nM | 0.251 to 1 nM |
| COc1cc2c(cc1Nc1nc(Nc3cccc(F)c3C(N)=O)c3cc[nH]c3n1)NCCC2 [Example 211, 2-fluoro-6-[(2-{[6-(methyloxy)-1,2,3,4-tetrahydro-7-quinolinyl]amino}-1H-pyrrolo[2,3-d]pyrimidin-4-yl)amino]benzamide] | > 1000 nM | > 1000 nM | > 500 nM | 5.01 to 200 nM |
| CNC(=O)c1c(F)cccc1Nc1nc(Nc2cc3c(cc2OC)CCCN3C(=O)CCN(C)C)nc2[nH]ccc12 [Example 213, 2-[(2-{[1-(N,N-dimethyl-β-alanyl)-6-(methyloxy)-1,2,3,4-tetrahydro-7-quinolinyl]amino}-1H-pyrrolo[2,3-d]pyrimidin-4-yl)amino]-6-fluoro-N-methylbenzamide] | > 1000 nM | 250 to 1000 nM | > 500 nM | 5.01 to 200 nM |
| COc1cc2c(cc1Nc1nc(Nc3cccc(F)c3C(N)=O)c3cc[nH]c3n1)N(C(=O)CCN(C)C)CCC2 [Example 214, 2-[(2-{[1-(N,N-dimethyl-β-alanyl)-6-(methyloxy)-1,2,3,4-tetrahydro-7-quinolinyl]amino}-1H-pyrrolo[2,3-d]pyrimidin-4-yl)amino]-6-fluorobenzamide] | 250 to 1000 nM | < 250 nM | 100 to 500 nM | 5.01 to 200 nM |

From patent US7981903B2, “2-[2-{phenylamino}-1H-pyrrolo[2,3-D]pyrimidin-4-yl)amino] benzamide derivatives as IGF-1R inhibitors for the treatment of cancer” (GlaxoSmithKline LLC, priority 2007, dated 2011)
